Consider four molecules from patent US20030078237A1, “Phenanthryl piperazinyl dicarboxylic acids as selective nmda receptor modulating agents” (priority 1999, published 2003).

The target of experiment [1] is T1, NR1/NR2D (Rattus norvegicus, UniProt Q62645).
T1 construct: expressed in transfected cells; host or cells: Xenopus oocytes injected with in vitro transcribed RNA
The conditions noted are these: recombinant, Xenopus oocytes; from Buller and Monaghan 1997, mean +/- SEM, n=4-6; cited from earlier work.

Experiment [2] has as its target T2, NR1/NR2C (Rattus norvegicus, UniProt Q00961).
T2 construct: expressed in transfected cells; host or cells: Xenopus oocytes injected with in vitro transcribed RNA
As to conditions: recombinant, Xenopus oocytes; from Buller and Monaghan 1997, mean +/- SEM, n=4-6; cited from earlier work.

In experiment [3] the target is T3, NR1/NR2B (Rattus norvegicus, UniProt Q00960).
T3 construct: expressed in transfected cells; host or cells: Xenopus oocytes injected with in vitro transcribed RNA
As to conditions: recombinant, Xenopus oocytes; from Buller and Monaghan 1997, mean +/- SEM, n=4-6; cited from earlier work.

Experiment [4] concerns the target T4, NR1/NR2A (Rattus norvegicus, UniProt Q00959).
T4 construct: expressed in transfected cells; host or cells: Xenopus oocytes injected with in vitro transcribed RNA
As to conditions: recombinant, Xenopus oocytes; from Buller and Monaghan 1997, mean +/- SEM, n=4-6; cited from earlier work.

For the next experiment, the system named is native AMPA receptors. The experiment can be described thus: autoradiography, [3H]CNQX binding to native AMPA receptors. As to conditions: PPDA 10 μM; 100 nM [3H]CNQX; n=3.
The next experiment deals with NMDA receptors. Description: NMDA-induced depolarizations of motoneurones, hemisected neonatal rat spinal cord. It counts as cell-based. On the procedure:
(§1) Hemisected neonatal rat spinal cords (Evans and Watkins, European Journal of Pharmacology, 50: 123-129, 1978) were isolated and wire electrodes were placed under the exposed ventral roots. The preparation was superfused with standard Ringers (containing in mM: NaCl 118, NaHCO3 25, KCl 3, CaCl2 2.5, D-glucose 12 and gassed with 95% O2/5% CO2). To record agonist-induced responses, 0.1 μM tetrodotoxin was included to block synaptic transmission and associated depolarizations. Agonist (N-methyl-D-aspartate (NMDA)) was superfused for 60-120 seconds at a rate of 1 ml/minute. The relative positive potentials recorded by the distal (to spinal cord) wire electrode compared to the proximal electrode was taken as an indication of motor neuron cell body depolarization. Antagonism of agonist-induced responses was observed by co-application of the antagonist PPDA.
(§2) AMPA and kainate are protypical agonists which show selectivity for, and predominantly activate, the AMPA and kainate subtypes of glutamate receptors. In additional assays, PPDA was tested at a concentration of 5 μM (which is approximately 20 times the Kd value for the antagonism of NMDA receptors) as an antagonist of AMPA (6 μM)-, kainate (50 μM)- and NMDA (50 μM)-induced depolarizations (approximate EC50 concentrations used) on neonatal rat motoneurones.

Experiment [5] has as its target T5, Native NMDA receptor, Cerebellum (NR2C) (Rattus norvegicus, UniProt Q00961).
T5 construct: Native NMDA Receptor Potency; from tissue; host or cells: rat brain sections, cerebellum
The experiment can be described thus: quantitative receptor autoradiography of [3H]-glutamate labeled native NMDA receptors, cerebellum NR2C. It counts as binding. The method, then:
(§3) PPDA (50 μM) also had no effect on depolarizations following administration of (1S,3R)-1-amino-1,3-cyclopentane dicarboxylic acid (ACPD; 30 μM). APCD is a Group I metabotropic glutamate (mGlu) receptor agonist. The recited values were determined by using quantitative receptor autoradiography of [^3H]-glutamate labeled NMDA receptors in rat brain tissue sections.
(§4) The potency of PPDA for native NMDA receptors was also investigated in a Xenopus oocyte system.

Experiment [6] relates to kainate subtype of glutamate receptors. The experiment can be described thus: kainate-induced depolarizations on neonatal rat motoneurones. The experiment is classed as cell-based. As to conditions: PPDA 5 μM, kainate 50 μM. On the procedure: as §1, §2
Experiment [7] concerns the target T6, NR1/NR2C (Rattus norvegicus, UniProt P35439+Q00961).
T6 construct: expressed in transfected cells; host or cells: Xenopus oocytes injected with in vitro transcribed RNA
Description: two-microelectrode voltage clamp of recombinant NMDA receptors in Xenopus oocytes, NR1/NR2C. The experiment is classed as cell-based. The method, then:
(§5) RNA translation and transcription in Xenopus oocytes and electrophysiological recordings were performed as previously described (Monaghan D T, Larson H (1997) J Pharmacol Exp Ther 280:614 -620). Plasmids were linearized with NotI (NR1a), EcoRI (NR2A, NR2C, and NR2D), or SalI (NR2B) and transcribed in vitro using the mMessage mMachine RNA polymerase transcription kit (Ambion, Austin, Tex.). NR1 a was mixed 1:3 with NR2A, NR2B, NR2C, or NR2D RNA, and 2-50 ng of this mixture was injected into oocytes. Agonist-evoked responses were measured using a standard two-microelectrode voltage clamp (model OC-725B Oocyte Clamp; Warner Instruments, Hamden, Conn.) at a holding potential of −60 mV. Glutamate (10 μM) and glycine (10 μM) were applied until stable plateau responses were obtained; (±)-cis-1-(phenanthren-2-yl-carbonyl)-piperazine-2,3-dicarboxylic acid (PPDA) (0.1, 0.3, 1, 3, 10, or 30 μM) was then applied until steady-state blockade was obtained, followed by antagonist washout and full agonist responses. Current responses were captured and analyzed with AxoData (Axon Instruments, Foster City, Calif.) and GraphPad Prism (ISI Software, San Diego, Calif.) software. Ki values were corrected for agonist affinity according to the Cheng-Prusoff equation. Data in Table 3 are expressed as mean Kl±SEM. […]

The target of experiment [8] is Native NMDA receptor, Midline thalamus (NR2B/NR2D). Description: quantitative receptor autoradiography of [3H]-glutamate labeled native NMDA receptors, midline thalamus. It counts as binding. The conditions noted are these: [3H]-glutamate autoradiography, rat brain sections; read-out: Ki, native NMDA receptor potency, Midline thalamus (NR2B/NR2D). The method, then: as §3, §4

Experiment [9] addresses T7, Native NMDA receptor, Medial Striatum (NR2B) (Rattus norvegicus, UniProt Q00960).
T7 construct: Native NMDA Receptor Potency; from tissue; host or cells: rat brain sections, medial striatum
The experiment can be described thus: quantitative receptor autoradiography of [3H]-glutamate labeled native NMDA receptors, medial striatum. It counts as binding. The method, then:
as §3, §4

For experiment [10], the target named is T8, NR1/NR2B (Rattus norvegicus, UniProt P35439+Q00960).
T8 construct: expressed in transfected cells; host or cells: Xenopus oocytes injected with in vitro transcribed RNA
Description: two-microelectrode voltage clamp of recombinant NMDA receptors in Xenopus oocytes, NR1/NR2B. The experiment is classed as cell-based. The method, then:
as §5

The subject of experiment [11] is native non-NMDA glutamate receptors ([3H]kainate binding). The experiment can be described thus: autoradiography, [3H]kainate binding. As to conditions: PPDA 10 μM; 25 nM [3H]kainate; n=3.
In experiment [12] the target is T9, NR1/NR2D (Rattus norvegicus, UniProt P35439+Q62645).
T9 construct: expressed in transfected cells; host or cells: Xenopus oocytes injected with in vitro transcribed RNA
The experiment can be described thus: two-microelectrode voltage clamp of recombinant NMDA receptors in Xenopus oocytes, NR1/NR2D. It counts as cell-based. The method, then:
as §5

The subject of experiment [13] is AMPA subtype of glutamate receptors. Description: AMPA-induced depolarizations on neonatal rat motoneurones. As to conditions: PPDA 5 μM, AMPA 6 μM. The experiment is classed as cell-based. On the procedure:
as §1, §2

The target of experiment [14] is T10, Native NMDA receptor, Cerebellum (NR2A) (Rattus norvegicus, UniProt Q00959).
T10 construct: Native NMDA Receptor Potency; from tissue; host or cells: rat brain sections, cerebellum
The experiment can be described thus: quantitative receptor autoradiography of [3H]-glutamate labeled native NMDA receptors, cerebellum NR2A. It counts as binding. On the procedure:
as §3, §4

The test system of experiment [15] is Group I metabotropic glutamate (mGlu) receptor. Description: ACPD-induced depolarizations on neonatal rat motoneurones. The experiment is classed as cell-based. The conditions noted are these: PPDA 50 μM; ACPD 30 μM. On the procedure: as §1, §3
The target in experiment [16] is T11, NR1/NR2A (Rattus norvegicus, UniProt P35439+Q00959).
T11 construct: expressed in transfected cells; host or cells: Xenopus oocytes injected with in vitro transcribed RNA
The experiment can be described thus: two-microelectrode voltage clamp of recombinant NMDA receptors in Xenopus oocytes, NR1/NR2A. The experiment is classed as cell-based. As to conditions: NR1a co-expressed in Xenopus oocytes, mean +/- SEM. On the procedure:
as §5

Read-outs that look alike come from different tables or passages of the source.

T6 sequence (Q00961 20-1237, other chains not shown): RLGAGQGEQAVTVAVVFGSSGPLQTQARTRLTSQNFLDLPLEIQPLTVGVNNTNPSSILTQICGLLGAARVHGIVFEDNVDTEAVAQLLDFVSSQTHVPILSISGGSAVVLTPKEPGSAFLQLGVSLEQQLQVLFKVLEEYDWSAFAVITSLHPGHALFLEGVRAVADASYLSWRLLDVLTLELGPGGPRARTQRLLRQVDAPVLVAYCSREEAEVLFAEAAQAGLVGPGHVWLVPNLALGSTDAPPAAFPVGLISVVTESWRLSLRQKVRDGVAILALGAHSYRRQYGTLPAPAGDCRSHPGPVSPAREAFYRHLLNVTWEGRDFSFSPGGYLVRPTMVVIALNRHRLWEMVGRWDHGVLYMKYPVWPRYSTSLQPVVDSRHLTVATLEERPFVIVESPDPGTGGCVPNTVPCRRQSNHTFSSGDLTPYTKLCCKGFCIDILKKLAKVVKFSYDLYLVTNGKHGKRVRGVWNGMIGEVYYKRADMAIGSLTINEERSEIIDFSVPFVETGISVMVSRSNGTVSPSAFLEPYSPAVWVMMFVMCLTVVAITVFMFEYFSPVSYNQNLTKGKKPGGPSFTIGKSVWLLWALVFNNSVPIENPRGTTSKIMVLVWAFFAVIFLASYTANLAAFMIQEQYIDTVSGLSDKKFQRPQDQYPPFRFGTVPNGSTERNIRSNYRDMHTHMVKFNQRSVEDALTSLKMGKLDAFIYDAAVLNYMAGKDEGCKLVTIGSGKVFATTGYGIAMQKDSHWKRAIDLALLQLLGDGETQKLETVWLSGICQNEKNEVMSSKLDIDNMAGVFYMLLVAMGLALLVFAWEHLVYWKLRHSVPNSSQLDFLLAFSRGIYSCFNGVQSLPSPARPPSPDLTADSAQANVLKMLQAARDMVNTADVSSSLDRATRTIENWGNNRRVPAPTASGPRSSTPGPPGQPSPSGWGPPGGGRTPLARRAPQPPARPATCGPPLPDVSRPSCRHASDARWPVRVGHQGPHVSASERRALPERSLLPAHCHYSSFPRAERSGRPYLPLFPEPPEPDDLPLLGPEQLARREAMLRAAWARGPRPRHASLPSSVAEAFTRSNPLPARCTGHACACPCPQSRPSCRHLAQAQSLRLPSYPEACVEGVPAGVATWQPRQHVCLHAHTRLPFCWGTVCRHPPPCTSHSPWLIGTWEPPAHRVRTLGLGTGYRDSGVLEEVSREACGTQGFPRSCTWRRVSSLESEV
T2 sequence (Q00961 20-1237, other chains not shown): as above
T1 sequence (Q62645 28-1323, other chains not shown): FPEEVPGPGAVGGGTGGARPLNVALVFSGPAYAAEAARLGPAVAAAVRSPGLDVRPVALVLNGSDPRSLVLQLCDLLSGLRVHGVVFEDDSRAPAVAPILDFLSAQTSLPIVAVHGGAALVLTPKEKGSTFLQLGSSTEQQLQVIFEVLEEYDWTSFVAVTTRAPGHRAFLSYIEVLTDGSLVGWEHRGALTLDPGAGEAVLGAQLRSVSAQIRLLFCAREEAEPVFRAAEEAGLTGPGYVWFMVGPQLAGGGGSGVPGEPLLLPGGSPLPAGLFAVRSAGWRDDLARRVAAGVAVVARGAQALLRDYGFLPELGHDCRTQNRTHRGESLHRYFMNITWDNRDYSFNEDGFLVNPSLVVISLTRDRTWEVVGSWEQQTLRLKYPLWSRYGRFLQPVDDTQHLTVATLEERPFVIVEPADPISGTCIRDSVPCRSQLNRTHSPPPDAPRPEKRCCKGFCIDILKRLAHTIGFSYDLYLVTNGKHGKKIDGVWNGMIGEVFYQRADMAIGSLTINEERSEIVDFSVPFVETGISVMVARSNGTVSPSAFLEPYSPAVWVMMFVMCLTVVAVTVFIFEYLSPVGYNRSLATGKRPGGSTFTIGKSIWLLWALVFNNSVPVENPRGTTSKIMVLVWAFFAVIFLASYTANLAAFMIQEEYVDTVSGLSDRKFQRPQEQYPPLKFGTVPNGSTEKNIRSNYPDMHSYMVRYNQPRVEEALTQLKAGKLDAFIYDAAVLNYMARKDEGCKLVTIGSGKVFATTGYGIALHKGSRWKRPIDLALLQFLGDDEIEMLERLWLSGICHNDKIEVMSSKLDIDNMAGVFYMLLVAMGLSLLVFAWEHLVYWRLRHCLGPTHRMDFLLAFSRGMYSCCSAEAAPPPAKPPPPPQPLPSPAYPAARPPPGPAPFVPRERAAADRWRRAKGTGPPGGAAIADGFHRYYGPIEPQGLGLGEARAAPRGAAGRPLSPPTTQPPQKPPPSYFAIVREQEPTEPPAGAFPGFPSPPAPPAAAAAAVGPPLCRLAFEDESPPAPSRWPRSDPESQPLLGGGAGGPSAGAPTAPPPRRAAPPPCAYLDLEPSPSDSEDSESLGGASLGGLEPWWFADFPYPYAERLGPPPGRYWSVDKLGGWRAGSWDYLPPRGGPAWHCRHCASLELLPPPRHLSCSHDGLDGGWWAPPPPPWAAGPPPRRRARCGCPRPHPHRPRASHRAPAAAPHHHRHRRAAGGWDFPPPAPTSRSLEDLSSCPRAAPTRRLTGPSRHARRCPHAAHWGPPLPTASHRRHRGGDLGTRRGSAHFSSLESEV
T9 sequence (Q62645 28-1323, other chains not shown): as above
T4 sequence (Q00959 23-1464, other chains not shown): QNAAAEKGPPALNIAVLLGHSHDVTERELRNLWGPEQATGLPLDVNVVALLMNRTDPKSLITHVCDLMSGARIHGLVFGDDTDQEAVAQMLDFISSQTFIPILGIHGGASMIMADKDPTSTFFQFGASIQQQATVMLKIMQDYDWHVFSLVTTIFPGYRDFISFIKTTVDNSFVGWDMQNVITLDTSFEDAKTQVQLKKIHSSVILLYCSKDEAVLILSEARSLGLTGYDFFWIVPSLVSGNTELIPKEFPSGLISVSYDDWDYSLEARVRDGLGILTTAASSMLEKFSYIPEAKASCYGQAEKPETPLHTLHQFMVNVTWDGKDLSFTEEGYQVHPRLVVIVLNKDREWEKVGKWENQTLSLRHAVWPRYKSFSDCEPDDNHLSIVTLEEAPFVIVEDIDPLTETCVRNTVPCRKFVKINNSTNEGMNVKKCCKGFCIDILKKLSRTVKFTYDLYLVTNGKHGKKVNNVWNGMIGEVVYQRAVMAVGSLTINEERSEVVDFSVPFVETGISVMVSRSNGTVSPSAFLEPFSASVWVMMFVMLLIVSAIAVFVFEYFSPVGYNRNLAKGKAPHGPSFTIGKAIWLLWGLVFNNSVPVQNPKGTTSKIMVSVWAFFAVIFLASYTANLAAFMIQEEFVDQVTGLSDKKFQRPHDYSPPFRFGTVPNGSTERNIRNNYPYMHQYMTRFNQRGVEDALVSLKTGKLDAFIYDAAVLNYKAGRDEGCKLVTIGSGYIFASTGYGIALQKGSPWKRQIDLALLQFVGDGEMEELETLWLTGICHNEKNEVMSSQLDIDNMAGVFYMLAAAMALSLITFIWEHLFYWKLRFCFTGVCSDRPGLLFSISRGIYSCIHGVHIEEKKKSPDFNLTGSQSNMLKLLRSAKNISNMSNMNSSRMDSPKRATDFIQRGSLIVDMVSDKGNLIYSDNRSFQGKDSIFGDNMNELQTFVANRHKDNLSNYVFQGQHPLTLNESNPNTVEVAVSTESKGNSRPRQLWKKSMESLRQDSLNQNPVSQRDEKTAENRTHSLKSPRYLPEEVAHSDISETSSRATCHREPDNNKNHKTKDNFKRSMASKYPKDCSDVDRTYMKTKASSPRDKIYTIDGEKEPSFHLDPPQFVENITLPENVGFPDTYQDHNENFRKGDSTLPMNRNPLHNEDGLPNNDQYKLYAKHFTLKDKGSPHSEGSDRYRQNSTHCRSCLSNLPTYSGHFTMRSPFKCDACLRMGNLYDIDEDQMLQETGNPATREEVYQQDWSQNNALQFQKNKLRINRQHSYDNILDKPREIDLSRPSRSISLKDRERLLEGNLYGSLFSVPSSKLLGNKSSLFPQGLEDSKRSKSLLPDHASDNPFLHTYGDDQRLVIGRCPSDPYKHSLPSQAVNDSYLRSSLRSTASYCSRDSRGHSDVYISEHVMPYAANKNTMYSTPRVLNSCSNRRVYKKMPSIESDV
T5 sequence (Q00961 20-1237, other chains not shown): as the sequence (Q00961 20-1237, other chains not shown) above

As to `N[C@H](CCCP(=O)(O)O)C(=O)O` [D-AP5], the Ki at NR1/NR2D [1] is 3710 nM; on NR1/NR2C [2], 1640 nM; on NR1/NR2B [3], 460 nM; at NR1/NR2A [4], 280 nM.

Turning to `O=C(O)C1CN(CC=CP(=O)(O)O)CCN1` (stereo not drawn) [CPP-ene, 4-(3-phosphonoprop-2-enyl)piperazine-2-carboxylic acid], the Ki on NR1/NR2D [1] is 1840 nM; on NR1/NR2C [2], 1460 nM; on NR1/NR2B [3] it was 140 nM; on NR1/NR2A [4], 110 nM.

A word on the Kd: it is the concentration at which binding is half-saturated. Consider `O=C(O)[C@H]1NCCN(C(=O)c2ccc3c(ccc4ccccc43)c2)[C@H]1C(=O)O` (racemic) [PPDA, (±)-cis-1-(Phenanthrene-2-ylcarbonyl)Piperazine-2,3-Dicarboxylic Acid], for which the “inhibition of [3H]CNQX binding to native AMPA receptors” value with native AMPA receptors worked out at 44.6±1.3%. Moreover, the “antagonism of NMDA-induced depolarizations” value with NMDA receptors (PPDA 5 μM, NMDA 50 μM, neonatal rat motoneurones) was 88%. Also, the Kd at NMDA receptors (neonatal rat spinal cord, competitive antagonist, read-out: affinity (Kd), Schild analysis of NMDA-induced depolarizations) worked out at 247 nM. Further, the “potency as antagonist of NMDA-induced depolarizations relative to CPP-ene” value in the experiment with NMDA receptors (spinal cord) is on record as “as potent as CPP-ene”. The Ki in experiment [5] is 390 nM; at NR1/NR2C [7], 0.07 µM; in [8], 310 nM; in experiment [9], 540 nM; on NR1/NR2B [10], 350 nM; at NR1/NR2D [12], 110 nM. This molecule also returned a Ki in experiment [14] of 7.2 µM. Further, the “antagonism of kainate-induced depolarizations” value in experiment [6] was found to be 21%. Further, in experiment [11], the “inhibition of [3H]kainate binding” value is recorded as 9.3±6.7%. Further, the “antagonism of AMPA-induced depolarizations” value in experiment [13] turned out to be 15%. The “effect on ACPD-induced depolarizations” value in [15] was “no effect”.

As to `O=C(O)C1NCCN(C(=O)c2ccc(-c3ccccc3)cc2)C1C(=O)O` (stereo not drawn) [PBPD, 1-(4-phenylbenzoyl)-piperazine-2,3-dicarboxylic acid, reference compound], the Ki at NR1/NR2A [16] turned out to be 15.8 µM; on NR1/NR2C [7] (recombinant, NR1a co-expressed in Xenopus oocytes, mean +/- SEM, read-out: NR1/NR2C Ki) it was 8.98 µM; on NR1/NR2B [10] (recombinant, NR1a co-expressed in Xenopus oocytes, mean +/- SEM, read-out: NR1/NR2B Ki), 5010 nM; on NR1/NR2D [12] (recombinant, NR1a co-expressed in Xenopus oocytes, mean +/- SEM, read-out: NR1/NR2D Ki), 4290 nM.
